Where a name gives a salt, the structure may show the parent alone.
Key:
[1] = system: MEK1 phosphorylation in the A375 human melanoma cell line; assay: cells; details: A-375, read-out: pMEK IC50
Procedure: A375 cells (from American Type Culture Collection) were plated at 50,000 cells per well in DMEM (Mediatech) with 10% fetal bovine serum (Omega Scientific) into a 96 well plate and incubated overnight in a 37° C. incubator with 10% CO2. The cells were then washed with PBS and the medium replaced with 0.5% FBS for incubation overnight. […] The cells were incubated with compound or control for two hours at 37° C. The compound solution was aspirated off and the cells washed with cold PBS. […] The plate was centrifuged for 30 minutes to pellet out the cell debris. The cleared lysates were transferred to a 96-well Nunc plate and the ELISA protocol described by the manufacturer in Catalog #KHO0321 or KHO0291 was followed.

RAF kinases = RAF kinases (Homo sapiens, UniProt P15056); assay: biochemical
Procedure: Competition binding assays used herein were developed, validated and performed as described in Fabian et al., Nature Biotechnology 2005, 23, 329-336. […] The liganded beads were blocked with excess biotin and washed with blocking buffer (SeaBlock (Pierce), 1% BSA, 0.05% Tween 20, 1 mM DTT) to remove unbound ligand and to reduce non-specific binding. […] Test compounds were prepared as 100× stocks in DMSO and rapidly diluted into the aqueous environment. DMSO was added to control assays lacking a test compound. Primary screen interactions were performed in polypropylene 384-well plates in a final volume of 34 μt, while Kd determinations were performed in polystyrene 96-well plates in a final volume of 135 pt. […] The kinase concentration in the eluates was measured by quantitative PCR. Each kinase was tested individually against each compound. Kds were determined using eleven serial threefold dilutions. A selectivity score, which is a quantitative measure of selectivity of a compound against a panel of enzymes, may be calculated for a compound by dividing the number of enzymes for which a compound meets a set criteria, (for example, a binding constant of 100 nM or less), by the total number of enzymes tested. […] (Note, for those compounds tested in a larger kinase panel, as indicated by an asterisk (*) next to the S35 score, the divisor is 321 (i.e. the larger panel contains 321 distinct kinases, excluding mutant variants.)).

A375 cells = assay: cells; details: Homo sapiens, A-375, read-out: A375 Viability EC50

RAF kinases, sequence (P15056 whole entry): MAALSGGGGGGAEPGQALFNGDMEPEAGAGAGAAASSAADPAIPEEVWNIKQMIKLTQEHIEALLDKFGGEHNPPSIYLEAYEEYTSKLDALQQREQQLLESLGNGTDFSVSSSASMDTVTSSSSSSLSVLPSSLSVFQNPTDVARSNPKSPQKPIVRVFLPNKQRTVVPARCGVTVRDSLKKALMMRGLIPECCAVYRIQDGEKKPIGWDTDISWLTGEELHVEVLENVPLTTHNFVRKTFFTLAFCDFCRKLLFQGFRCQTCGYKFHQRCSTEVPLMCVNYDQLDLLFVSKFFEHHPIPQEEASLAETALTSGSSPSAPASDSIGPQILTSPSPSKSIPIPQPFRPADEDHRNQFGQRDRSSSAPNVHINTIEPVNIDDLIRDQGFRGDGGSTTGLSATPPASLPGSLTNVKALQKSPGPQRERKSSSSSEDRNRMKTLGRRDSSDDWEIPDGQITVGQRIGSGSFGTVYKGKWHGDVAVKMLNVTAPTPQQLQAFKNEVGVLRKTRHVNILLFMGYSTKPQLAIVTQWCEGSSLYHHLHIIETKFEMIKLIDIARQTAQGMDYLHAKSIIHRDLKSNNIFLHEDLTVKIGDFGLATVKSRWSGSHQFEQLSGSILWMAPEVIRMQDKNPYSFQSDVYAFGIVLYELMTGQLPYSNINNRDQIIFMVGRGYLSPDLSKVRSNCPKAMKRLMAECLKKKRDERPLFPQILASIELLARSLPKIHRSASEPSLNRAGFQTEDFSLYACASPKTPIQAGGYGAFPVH

## COc1cc2ncnc(Oc3cccc(NC(=O)Nc4cc(C(C)(C)C)on4)c3)c2cc1OCCN1CCCCC1 [Ex 16, 1-(5-tert-butylisoxazol-3-yl)-3-(3-(7-methoxy-6-(2-(piperidin-1-yl)ethoxy)quinazolin-4-yloxy)phenyl)urea]
[1]
  IC50: 250 to 500 nM
RAF kinases
  Kd: 500 to 1000 nM
A375 cells
  EC50: > 1000 nM

## COc1cc2ncnc(Oc3cccc(NC(=O)Nc4cc(C(C)(C)C)on4)c3)c2cc1OCCCN1CCS(=O)(=O)CC1 [Ex 26, 1-(5-tert-butyl-isoxazol-3-yl)-3-(3-{6-[3-(1,1-dioxo-thiomorpholin-4-yl)-propoxy]-7-methoxy-quinazolin-4-yloxy}-phenyl)-urea]
[1]
  IC50: < 250 nM
RAF kinases
  Kd: 250 to 500 nM
A375 cells
  EC50: < 250 nM

## COc1cc2c(Oc3cccc(NC(=O)Nc4cc(C(C)(C)C)on4)c3)ncnc2cc1OCCCN1CCN(C)CC1 [Ex 28, 1-(5-tert-butylisoxazol-3-yl)-3-(3-(6-methoxy-7-(3-(4-methylpiperazin-1-yl)propoxy)quinazolin-4-yloxy)phenyl)urea]
[1]
  IC50: < 250 nM
RAF kinases
  Kd: 250 to 500 nM
A375 cells
  EC50: < 250 nM

## COc1cc2ncnc(Sc3cccc(NC(=O)Nc4cc(C(C)(C)C)on4)c3)c2cc1OCCCN1CCN(CCO)CC1 [Ex 61, 1-(5-tert-butylisoxazol-3-yl)-3-(3-(6-(3-(4-(2-hydroxyethyl)piperazin-1-yl)propoxy)-7-methoxyquinazolin-4-ylthio)phenyl)urea]
[1]
  IC50: > 1000 nM
RAF kinases
  Kd: 250 to 500 nM
A375 cells
  EC50: > 1000 nM

## COc1cc2ncnc(Sc3cccc(NC(=O)Nc4cc(C(C)(C)C)on4)c3)c2cc1OCCCN1CCS(=O)(=O)CC1 [Ex 62, 1-(5-tert-butyl-isoxazol-3-yl)-3-(3-{6-[3-(1,1-dioxo-thiomorpholin-4-yl)-propoxy]-7-methoxy-quinazolin-4-ylsulfanyl}-phenyl)-urea]
[1]
  IC50: < 250 nM
RAF kinases
  Kd: 250 to 500 nM
A375 cells
  EC50: < 250 nM

## COc1cc2ncnc(Sc3cccc(NC(=O)Nc4cc(C(C)(C)C)on4)c3)c2cc1OCCCN1CCOCC1 [Ex 63, 1-(5-tert-butylisoxazol-3-yl)-3-(3-(7-methoxy-6-(3-morpholinopropoxy)quinazolin-4-ylthio)phenyl)urea]
[1]
  IC50: < 250 nM
RAF kinases
  Kd: 250 to 500 nM
A375 cells
  EC50: 500 to 1000 nM

## COc1cc2ncnc(Sc3cccc(NC(=O)Nc4cc(C(C)(C)C)on4)c3)c2cc1OCCN1CCOCC1 [Ex 70, 1-(5-tert-butylisoxazol-3-yl)-3-(3-(7-methoxy-6-(2-morpholinoethoxy)quinazolin-4-ylthio)phenyl)urea]
[1]
  IC50: < 250 nM
RAF kinases
  Kd: 250 to 500 nM
A375 cells
  EC50: < 250 nM

## COc1cc2c(Sc3cccc(NC(=O)Nc4cc(C(C)(C)C)on4)c3)ncnc2cc1OCCCN1CCC(CO)CC1 [Ex 74, 1-(5-tert-butylisoxazol-3-yl)-3-(3-(7-(3-(4-(hydroxymethyl)piperidin-1-yl)propoxy)-6-methoxyquinazolin-4-ylthio)phenyl)urea]
[1]
  IC50: < 250 nM
RAF kinases
  Kd: 250 to 500 nM
A375 cells
  EC50: 250 to 500 nM

## COc1cc2c(Oc3cccc(NC(=O)Nc4cc(C(C)(C)C)on4)c3)ncnc2cc1O[C@H]1CCNC1 [Ex 96, (S)-1-(5-tert-butylisoxazol-3-yl)-3-(3-(6-methoxy-7-(pyrrolidin-3-yloxy)quinazolin-4-yloxy)phenyl)urea dihydrochloride]
[1]
  IC50: 250 to 500 nM
RAF kinases
  Kd: 250 to 500 nM
A375 cells
  EC50: > 1000 nM

## COc1cc2c(Oc3cccc(NC(=O)Nc4cc(C(C)(C)C)on4)c3)ncnc2cc1O[C@@H]1CCNC1 [Ex 98, (R)-1-(5-tert-butylisoxazol-3-yl)-3-(3-(6-methoxy-7-(pyrrolidin-3-yloxy)quinazolin-4-yloxy)phenyl)urea dihydrochloride]
[1]
  IC50: 500 to 1000 nM
RAF kinases
  Kd: 250 to 500 nM
A375 cells
  EC50: > 1000 nM

## COc1cc2ncnc(Oc3cccc(NC(=O)Nc4cc(C(C)(C)C)on4)c3)c2cc1O [Ex 107, 1-(5-tert-butylisoxazol-3-yl)-3-(3-(6-hydroxy-7-methoxyquinazolin-4-yloxy)phenyl)urea]
[1]
  IC50: < 250 nM
RAF kinases
  Kd: 250 to 500 nM
A375 cells
  EC50: 250 to 500 nM

## COc1cc2ncnc(Oc3cccc(NC(=O)Nc4cc(C(C)(C)C)on4)c3)c2cc1O[C@H]1CCN(CC(F)F)C1 [Ex 110, (S)-1-(5-tert-butylisoxazol-3-yl)-3-(3-(6-(1-(2,2-difluoroethyl)pyrrolidin-3-yloxy)-7-methoxyquinazolin-4-yloxy)phenyl)urea]
[1]
  IC50: < 250 nM
RAF kinases
  Kd: 250 to 500 nM
A375 cells
  EC50: < 250 nM

## COc1cc2ncnc(Oc3cccc(NC(=O)Nc4cc(C(C)(C)C)on4)c3)c2cc1OC[C@@H](O)CN1CCN(C)CC1 [Ex 111, (S)-1-(5-tert-butylisoxazol-3-yl)-3-(3-(6-(2-hydroxy-3-(4-methylpiperazin-1-yl)propoxy)-7-methoxyquinazolin-4-yloxy)phenyl)urea]
[1]
  IC50: < 250 nM
RAF kinases
  Kd: 250 to 500 nM
A375 cells
  EC50: 250 to 500 nM

## COc1cc2ncnc(Oc3cccc(NC(=O)Nc4cccc(C(C)(C)C)c4)c3)c2cc1OC [Ex 118, 1-(3-tert-butylphenyl)-3-(3-(6,7-dimethoxyquinazolin-4-yloxy)phenyl)urea]
[1]
  IC50: 250 to 500 nM
RAF kinases
  Kd: 250 to 500 nM
A375 cells
  EC50: > 1000 nM

## COc1cc2ncnc(Sc3cccc(NC(=O)Nc4cccc(C(C)(C)C)c4)c3)c2cc1OC [Ex 120, 1-(3-tert-butylphenyl)-3-(3-(6,7-dimethoxyquinazolin-4-ylthio)phenyl)urea]
[1]
  IC50: 250 to 500 nM
RAF kinases
  Kd: 250 to 500 nM
A375 cells
  EC50: > 1000 nM

## COCC(C)(C)c1cc(NC(=O)Nc2cccc(Oc3ncnc4cc(OC)c(OC)cc34)c2)on1 [Ex 128, 1-(3-(6,7-dimethoxyquinazolin-4-yloxy)phenyl)-3-(3-(1-methoxy-2-methylpropan-2-yl)isoxazol-5-yl)urea]
[1]
  IC50: 500 to 1000 nM
A375 cells
  EC50: > 1000 nM

## COc1cc2ncnc(Oc3cccc(NC(=O)Nc4cc(C(C)C)on4)c3)c2cc1OC [Ex 133, 1-(3-(6,7-dimethoxyquinazolin-4-yloxy)phenyl)-3-(5-isopropylisoxazol-3-yl)urea]
[1]
  IC50: 250 to 500 nM
A375 cells
  EC50: 500 to 1000 nM

## COc1cc2ncnc(Sc3cccc(NC(=O)Nc4cc(C(C)C)on4)c3)c2cc1OC [Ex 134, 1-(3-(6,7-dimethoxyquinazolin-4-ylthio)phenyl)-3-(5-isopropylisoxazol-3-yl)urea]
[1]
  IC50: 250 to 500 nM
A375 cells
  EC50: > 1000 nM

## COc1cc2ncnc(Oc3cccc(NC(=O)Nc4cc(C5CCCC5)on4)c3)c2cc1OC [Ex 135, 1-(5-cyclopentylisoxazol-3-yl)-3-(3-(6,7-dimethoxyquinazolin-4-yloxy)phenyl)urea]
[1]
  IC50: < 250 nM
A375 cells
  EC50: 250 to 500 nM

## COc1cc2ncnc(Oc3cccc(NC(=O)Nc4cc(C(C)(C)F)on4)c3)c2cc1OC [Ex 136, 1-(3-(6,7-dimethoxyquinazolin-4-yloxy)phenyl)-3-(5-(2-fluoropropan-2-yl)isoxazol-3-yl)urea]
[1]
  IC50: < 250 nM
A375 cells
  EC50: 250 to 500 nM

## COCCOc1cc2ncnc(Oc3cccc(NC(=O)Nc4ccc(OC)c(C(F)(F)F)c4)c3)c2cc1OC [Ex 139, 1-(4-methoxy-3-(trifluoromethyl)phenyl)-3-(3-(6-methoxy-7-(2-methoxyethoxy)quinazolin-4-yloxy)phenyl)urea]
[1]
  IC50: 250 to 500 nM
A375 cells
  EC50: > 1000 nM

## COc1cc2ncnc(Oc3cccc(NC(=O)Nc4cc(C(F)(F)F)ccn4)c3)c2cc1OC [Ex 141, 1-(3-(6,7-dimethoxyquinazolin-4-yloxy)phenyl)-3-(4-(trifluoromethyl)pyridin-2-yl)urea]
[1]
  IC50: 500 to 1000 nM
A375 cells
  EC50: > 1000 nM

## COc1cc2ncnc(Oc3cccc(NC(=O)Nc4cc(C(F)(F)F)nn4C)c3)c2cc1OC [Ex 164, 1-[3-(6,7-dimethoxyquinazolin-4-yloxy)phenyl]-3-[1-methyl-3-(trifluoromethyl)-1H-pyrazol-5-yl]urea]
[1]
  IC50: 250 to 500 nM
A375 cells
  EC50: > 1000 nM

## COc1cc2ncnc(Oc3cccc(NC(=O)Nc4cc(C(F)(F)F)n(C)n4)c3)c2cc1OC [Ex 165, 1-[3-(6,7-dimethoxyquinazolin-4-yloxy)phenyl]-3-[1-methyl-5-(trifluoromethyl)-1H-pyrazol-3-yl]urea]
[1]
  IC50: 250 to 500 nM
A375 cells
  EC50: 500 to 1000 nM

## COc1cc2ncnc(Oc3cccc(NC(=O)Nc4cc(C(C)(CF)CF)nn4-c4ccccc4)c3)c2cc1OC [Ex 167, 1-[3-(1,3-difluoro-2-methylpropan-2-yl)-1-phenyl-1H-pyrazol-5-yl]-3-[3-(6,7-dimethoxyquinazolin-4-yloxy)phenyl]urea]
[1]
  IC50: < 250 nM
A375 cells
  EC50: 500 to 1000 nM

## COc1cc2ncnc(Oc3cccc(NC(=O)Nc4cc(C(F)(F)F)n(-c5ccccc5)n4)c3)c2cc1OC [Ex 169, 1-[3-(6,7-dimethoxyquinazolin-4-yloxy)phenyl]-3-[1-phenyl-5-(trifluoromethyl)-1H-pyrazol-3-yl]urea]
[1]
  IC50: 250 to 500 nM
A375 cells
  EC50: > 1000 nM

## COc1cc2ncnc(Oc3cccc(NC(=O)Nc4ccc(Cl)cc4)c3)c2cc1OC [Ex 175, 1-(4-chlorophenyl)-3-(3-(6,7-dimethoxyquinazolin-4-yloxy)phenyl)urea]
[1]
  IC50: > 1000 nM
A375 cells
  EC50: > 1000 nM

## COc1ccc(NC(=O)Nc2cccc(Oc3ncnc4cc(OC)c(OC)cc34)c2)cc1Cl [Ex 180, 1-(3-chloro-4-methoxyphenyl)-3-(3-(6,7-dimethoxyquinazolin-4-yloxy)phenyl)urea]
[1]
  IC50: > 1000 nM
A375 cells
  EC50: > 1000 nM

## COc1cc2ncnc(Oc3cccc(NC(=O)Nc4cccc(C(F)(F)F)c4)c3)c2cc1OC [Ex 181, 1-(3-(6,7-dimethoxyquinazolin-4-yloxy)phenyl)-3-(3-(trifluoromethyl)phenyl)urea]
[1]
  IC50: > 1000 nM
A375 cells
  EC50: > 1000 nM

## COc1cc2ncnc(Sc3cccc(NC(=O)Nc4cc(C(F)(F)F)nn4C)c3)c2cc1OC [Ex 193, 1-[3-(6,7-dimethoxyquinazolin-4-ylthio)phenyl]-3-[1-methyl-3-(trifluoromethyl)-1H-pyrazol-5-yl]urea]
[1]
  IC50: < 250 nM
A375 cells
  EC50: 500 to 1000 nM

## COc1cc2ncnc(Sc3cccc(NC(=O)Nc4cc(C(C)(CF)CF)nn4-c4ccccc4)c3)c2cc1OC [Ex 196, 1-[3-(1,3-difluoro-2-methylpropan-2-yl)-1-phenyl-1H-pyrazol-5-yl]-3-[3-(6,7-dimethoxyquinazolin-4-ylthio)phenyl]urea]
[1]
  IC50: < 250 nM
A375 cells
  EC50: > 1000 nM

Source: US8618289B2 (Ambit Biosciences Corporation, priority 2008, dated 2013)
